The target of experiment [1] is T1, JAK3 (Homo sapiens, UniProt P52333).
T1 sequence (P52333 1-1124): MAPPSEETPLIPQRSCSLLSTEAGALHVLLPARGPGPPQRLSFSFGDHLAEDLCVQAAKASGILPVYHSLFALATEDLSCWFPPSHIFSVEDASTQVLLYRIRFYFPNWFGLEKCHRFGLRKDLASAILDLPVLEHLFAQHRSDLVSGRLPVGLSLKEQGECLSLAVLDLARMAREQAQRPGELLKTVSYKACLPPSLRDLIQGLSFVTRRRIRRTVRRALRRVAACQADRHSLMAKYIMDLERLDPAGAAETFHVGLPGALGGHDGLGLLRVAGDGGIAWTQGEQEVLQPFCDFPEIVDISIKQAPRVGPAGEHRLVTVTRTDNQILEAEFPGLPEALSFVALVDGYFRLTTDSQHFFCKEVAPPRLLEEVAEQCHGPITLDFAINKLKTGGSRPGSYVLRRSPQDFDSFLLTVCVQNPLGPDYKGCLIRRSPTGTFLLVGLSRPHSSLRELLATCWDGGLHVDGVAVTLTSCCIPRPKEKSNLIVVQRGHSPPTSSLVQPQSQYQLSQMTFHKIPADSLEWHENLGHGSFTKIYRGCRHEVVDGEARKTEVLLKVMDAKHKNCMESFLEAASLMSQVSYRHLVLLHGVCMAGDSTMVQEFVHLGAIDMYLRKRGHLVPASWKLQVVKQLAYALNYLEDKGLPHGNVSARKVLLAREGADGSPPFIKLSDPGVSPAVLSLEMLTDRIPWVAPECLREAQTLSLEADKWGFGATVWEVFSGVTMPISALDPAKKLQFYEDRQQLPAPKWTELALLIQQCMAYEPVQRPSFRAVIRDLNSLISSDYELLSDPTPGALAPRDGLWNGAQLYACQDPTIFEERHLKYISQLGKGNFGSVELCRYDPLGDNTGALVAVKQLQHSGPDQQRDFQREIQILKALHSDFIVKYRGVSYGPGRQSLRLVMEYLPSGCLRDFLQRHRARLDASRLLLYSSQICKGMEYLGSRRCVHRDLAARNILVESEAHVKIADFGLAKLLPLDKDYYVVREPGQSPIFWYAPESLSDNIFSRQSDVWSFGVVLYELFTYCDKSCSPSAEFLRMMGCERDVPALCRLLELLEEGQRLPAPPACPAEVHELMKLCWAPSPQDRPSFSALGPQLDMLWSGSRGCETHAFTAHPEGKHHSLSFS
Put plainly: JAK3 Inhibition Assay. The class given is biochemical. To be noted: 1 nM JAK3, 1 μM poly(Glu)4Tyr, 5 μM ATP, 25° C., 33P incorporation.

The target in experiment [2] is JAK-2 enzyme (Homo sapiens, UniProt O60674). Put plainly: JAK2 Inhibition Assay.
Protocol: Reactions were carried out in a kinase buffer containing 100 mM HEPES (pH 7.4), 1 mM DTT, 10 mM MgCl2, 25 mM NaCl, and 0.01% BSA. Substrate concentrations in the assay were 5 μM ATP (200 uCi/μmole ATP) and 1 μM poly(Glu)4Tyr. Reactions were carried out at 25° C. and 1 nM JAK3.
To each well of a 96 well polycarbonate plate was added 1.5 μl of a candidate JAK3 inhibitor along with 50 μl of kinase buffer containing 2 μM poly(Glu)4Tyr and 10 μM ATP. This was then mixed and 50 μl of kinase buffer containing 2 nM JAK3 enzyme was added to start the reaction. After 20 minutes at room temperature (25° C.), the reaction was stopped with 50 μl of 20% trichloroacetic acid (TCA) that also contained 0.4 mM ATP. The entire contents of each well were then transferred to a 96 well glass fiber filter plate using a TomTek Cell Harvester. After washing, 60 μl of scintillation fluid was added and ^33P incorporation detected on a Perkin Elmer TopCount.

Each structure is given as a SMILES string.

Consider 41 compounds from patent US8937064B2, “Pyrazolo[1,5-a]pyrimidines useful as JAK2 inhibitors” (Vertex Pharmaceuticals Incorporated, priority 2007, dated 2015).

A word on the Ki: it is the dissociation constant of the complex between target and ligand, obtained from inhibition or displacement.

JAK-2 enzyme, sequence (O60674 whole entry): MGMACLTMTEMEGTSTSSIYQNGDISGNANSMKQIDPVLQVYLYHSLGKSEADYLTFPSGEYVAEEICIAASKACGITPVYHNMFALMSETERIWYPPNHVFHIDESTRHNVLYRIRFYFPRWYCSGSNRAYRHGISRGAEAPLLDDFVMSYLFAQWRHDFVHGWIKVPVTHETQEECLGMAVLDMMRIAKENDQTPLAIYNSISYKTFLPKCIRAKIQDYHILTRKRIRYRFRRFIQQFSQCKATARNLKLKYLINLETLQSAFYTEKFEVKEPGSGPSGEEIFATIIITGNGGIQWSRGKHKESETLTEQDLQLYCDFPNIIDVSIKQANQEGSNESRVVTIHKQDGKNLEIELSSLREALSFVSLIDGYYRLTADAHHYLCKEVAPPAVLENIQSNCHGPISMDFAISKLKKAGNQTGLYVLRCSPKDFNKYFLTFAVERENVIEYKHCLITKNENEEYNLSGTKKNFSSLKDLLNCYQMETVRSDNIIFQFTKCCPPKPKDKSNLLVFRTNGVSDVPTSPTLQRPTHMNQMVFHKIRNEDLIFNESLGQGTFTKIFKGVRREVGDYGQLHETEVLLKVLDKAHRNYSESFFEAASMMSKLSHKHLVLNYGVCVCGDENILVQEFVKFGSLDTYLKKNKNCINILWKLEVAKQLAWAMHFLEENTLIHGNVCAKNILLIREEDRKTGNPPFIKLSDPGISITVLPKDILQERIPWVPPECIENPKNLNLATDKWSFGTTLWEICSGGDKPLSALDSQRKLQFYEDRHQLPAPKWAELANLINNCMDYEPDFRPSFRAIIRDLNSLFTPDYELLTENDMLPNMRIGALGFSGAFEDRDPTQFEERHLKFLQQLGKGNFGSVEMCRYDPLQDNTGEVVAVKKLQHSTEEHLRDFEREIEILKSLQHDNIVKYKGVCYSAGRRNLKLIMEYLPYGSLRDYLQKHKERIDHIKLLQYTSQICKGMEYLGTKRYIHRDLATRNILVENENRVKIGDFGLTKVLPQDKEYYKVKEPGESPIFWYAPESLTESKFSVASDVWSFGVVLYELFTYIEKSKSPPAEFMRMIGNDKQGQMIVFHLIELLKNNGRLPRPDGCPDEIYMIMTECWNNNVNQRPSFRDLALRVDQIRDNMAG

In the case of `C[C@H](c1ccccc1)N(C)c1cc(-c2c(N)nn3cccnc23)ncn1` [Compound 20], the Ki in experiment [1] lay in the range of 100 to 500 nM; in experiment [2], 10 to 100 nM.

On to `O=C(Nc1ccnc(-c2cnn3cccnc23)c1)c1ccccc1F` [Compound 228], for which the Ki in experiment [1] fell in the range of 500 to 5000 nM; in experiment [2] it was 100 to 500 nM.

For `Nc1nn2cccnc2c1-c1cc(N[C@@H]2CCCc3ccccc32)ncn1` [Compound 79], the Ki in experiment [1] was 100 to 500 nM; in experiment [2], 10 to 100 nM.

As to `CC1CC1COc1nc(N[C@@H](C)c2ccc(F)cc2F)cc(-c2cnn3cccnc23)n1` (stereo partly shown) [Compound 214], the values for the Ki in experiment [1] and in experiment [2] were 100 to 500 nM and under 10 nM, respectively.

Regarding `CSCCOc1nc(N[C@@H](C)c2ccc(F)cc2F)cc(-c2cnn3cccnc23)n1` [Compound 212], the results for the Ki in experiment [1] and in experiment [2] were 10 to 100 nM and under 10 nM, respectively.

As to `Nc1nn2cccnc2c1-c1cc(NCc2ccco2)ncn1` [Compound 24], the Ki in experiment [1] and in experiment [2] was 10 to 100 nM throughout.

Turning to `C[C@H](Nc1ccnc(-c2cnn3cccnc23)n1)c1ccc(Cl)cc1` [Compound 226], the Ki fell in the range of 500 to 5000 nM in experiment [1] and 100 to 500 nM in experiment [2].

As for `C[C@H](Nc1cc(-c2cnn3cccnc23)nc(OCCCNCc2ccncc2)n1)c1ccc(F)cc1F` [Compound 220], the Ki in experiment [1] was 10 to 100 nM; in experiment [2] it was under 10 nM.

Regarding `CC(C)NCCOc1nc(N[C@@H](C)c2ccc(F)cc2F)cc(-c2cnn3cccnc23)n1` [Compound 207], the Ki is 10 to 100 nM in experiment [1] and under 10 nM in experiment [2].

Regarding `C[C@H](Nc1cc(-c2cnn3cccnc23)nc(OCCN2CCCCC2)n1)c1ccc(F)cc1F` [Compound 195], the Ki in experiment [1] was 10 to 100 nM; in experiment [2], under 10 nM.

Regarding `COC(C)(C)CCOc1nc(N[C@@H](C)c2ccc(F)cc2F)cc(-c2c(N)nn3cccnc23)n1` [Compound 138], the Ki in experiment [1] was 10 to 100 nM; in experiment [2] it was under 10 nM.

Consider `CCC1c2ccccc2CCN1c1cc(-c2c(N)nn3cccnc23)ncn1` (stereo not shown) [Compound 64], for which the Ki is 100 to 500 nM in experiment [1] and under 10 nM in experiment [2].

Turning to `CC/C=C\COc1nc(N[C@@H](C)c2ccc(F)cc2)cc(-c2c(N)nn3cccnc23)n1` [Compound 165], the Ki was 100 to 500 nM in experiment [1] and 10 to 100 nM in experiment [2].

For the compound `O=C(Nc1ccnc(-c2cnn3cccnc23)c1)c1ccc(F)c(F)c1` [Compound 231], the Ki was in the range of 500 to 5000 nM in experiment [1] and 100 to 500 nM in experiment [2].

Turning to `COCCC(=O)Nc1nc(N[C@@H](C)c2ccc(F)cc2F)cc(-c2cnn3cccnc23)n1` [Compound 184], the Ki in experiment [1] was 100 to 500 nM; in experiment [2], under 10 nM.

Consider `CCC[C@H](Nc1cc(-c2c(N)nn3cccnc23)nc(S(C)(=O)=O)n1)c1ccc(F)cc1` [Compound 110], for which the Ki in experiment [1] was 10 to 100 nM; in experiment [2], under 10 nM.

Consider `C[C@H](Nc1cc(-c2c(N)nn3cccnc23)nc(OCCOC(C)(C)C)n1)c1ccc(F)cc1` [Compound 160], for which the Ki in experiment [1] fell in the range of 100 to 500 nM; in experiment [2] it was 10 to 100 nM.

For the compound `C[C@H](Nc1cc(-c2cnn3cccnc23)nc(OCC2CCCC2)n1)c1ccc(F)cc1F` [Compound 223], the results for the Ki in experiment [1] and in experiment [2] were 100 to 500 nM and 10 to 100 nM, respectively.

For the compound `Nc1nn2cccnc2c1-c1cc(NCc2cc(C(F)(F)F)ccc2F)ncn1` [Compound 45], the values for the Ki in experiment [1] and in experiment [2] were 100 to 500 nM and 10 to 100 nM, respectively.

Regarding `C[C@H](Nc1cc(-c2c(N)nn3cccnc23)nc(S(C)(=O)=O)n1)c1ccc(F)cc1` [Compound 100], the Ki in experiment [1] and in experiment [2] was under 10 nM each time.

Regarding `CCCOc1nc(N[C@@H](C)c2ccc(F)cc2)cc(-c2c(N)nn3cccnc23)n1` [Compound 153], the inhibition constant Ki in experiment [1] is 10 to 100 nM; in experiment [2] it was under 10 nM.

Regarding `C[C@H](Nc1cc(-c2cnn3cccnc23)nc(OCC2CCCNC2)n1)c1ccc(F)cc1F` (stereo partly shown) [Compound 202], the values for the Ki in experiment [1] and in experiment [2] were 10 to 100 nM and under 10 nM, respectively.

Turning to `CCC(Oc1cc(-c2c(N)nn3cccnc23)ncn1)c1ccccc1` (stereo not shown) [Compound 65], the Ki in experiment [1] is 10 to 100 nM; in experiment [2], under 10 nM.

With `C=CCOCCOc1nc(N[C@@H](C)c2ccc(F)cc2F)cc(-c2cnn3cccnc23)n1` [Compound 221], the figures for the Ki in experiment [1] and in experiment [2] were 10 to 100 nM and under 10 nM, respectively.

Regarding `C[C@@H](Nc1cc(-c2cnn3cccnc23)ncn1)c1ccc(Cl)cc1` [Compound 146], the Ki was 500 to 5000 nM in experiment [1] and 10 to 100 nM in experiment [2].

Take `CC#CC(C)Oc1nc(N[C@@H](C)c2ccc(F)cc2)cc(-c2c(N)nn3cccnc23)n1` (stereo partly shown) [Compound 181]: the Ki in experiment [1] is 100 to 500 nM; in experiment [2], 10 to 100 nM.

For `C[C@H](Nc1cc(-c2c(N)nn3cccnc23)nc(NCCN2CCOCC2)n1)c1ccc(F)cc1` [Compound 124], the Ki is 10 to 100 nM in experiment [1] and under 10 nM in experiment [2].

In the case of `CSCCOc1nc(N[C@@H](C)c2ccc(F)cc2)cc(-c2c(N)nn3cccnc23)n1` [Compound 173], the values for the Ki in experiment [1] and in experiment [2] were 10 to 100 nM and under 10 nM, respectively.

Regarding `Nc1nn2cccnc2c1-c1cc(NCc2ccsc2Br)ncn1` [Compound 36], the Ki in experiment [1] was 10 to 100 nM; in experiment [2], under 10 nM.

With `C[C@H](Nc1cc(-c2c(N)nn3cccnc23)nc(OCC2(C)CC2)n1)c1ccc(F)cc1` [Compound 143], the figures for the inhibition constant (Ki) in experiment [1] and in experiment [2] were 100 to 500 nM and 10 to 100 nM, respectively.

In the case of `CC(C#N)Oc1nc(N[C@@H](C)c2ccc(F)cc2F)cc(-c2cnn3cccnc23)n1` (stereo partly shown) [Compound 201], the values for the Ki in experiment [1] and in experiment [2] were 10 to 100 nM and under 10 nM, respectively.

On to `C[C@H](Nc1cc(-c2cnn3cccnc23)ncn1)c1ccc(Cl)cc1` [Compound 144], for which the Ki in experiment [1] is 100 to 500 nM; in experiment [2], under 10 nM.

In the case of `CC(C)[C@H](Nc1cc(-c2c(N)nn3ccc(C(F)(F)F)nc23)ncn1)c1ccc(F)cc1F` [Compound 136], the figures for the Ki in experiment [1] and in experiment [2] were 100 to 500 nM and 10 to 100 nM, respectively.

Consider `CN(Cc1cccnc1)c1cc(-c2c(N)nn3cccnc23)ncn1` [Compound 33], for which the Ki in experiment [1] and in experiment [2] was 10 to 100 nM each time.

Consider `N#Cc1cccc(C(=O)Nc2ccnc(-c3cnn4cccnc34)c2)c1` [Compound 230], for which the Ki is 500 to 5000 nM in experiment [1] and 100 to 500 nM in experiment [2].

Take `C[C@H](Nc1cc(-c2cnn3cccnc23)ncn1)c1ccc(F)cc1` [Compound 114]: the Ki is 10 to 100 nM in experiment [1] and under 10 nM in experiment [2].

`C[C@H](Nc1cc(-c2cnn3cccnc23)nc(OC2CCN(C)CC2)n1)c1ccc(F)cc1F` [Compound 200]: the Ki in experiment [1] was 100 to 500 nM; in experiment [2], under 10 nM.

`C[C@H](Nc1cc(-c2cnn3cccnc23)ncn1)c1ccc(F)c(F)c1` [Compound 118]: the Ki in experiment [1] is 10 to 100 nM; in experiment [2], under 10 nM.

Take `COCCOc1nc(N[C@@H](C)c2ccc(F)cc2)cc(-c2c(N)nn3cccnc23)n1` [Compound 108]: the results for the Ki in experiment [1] and in experiment [2] were 10 to 100 nM and under 10 nM, respectively.

Turning to `CC(Oc1cc(-c2c(N)nn3cccnc23)ncn1)c1ccc(F)cc1` (stereo not shown) [Compound 71], the Ki was 10 to 100 nM in experiment [1] and under 10 nM in experiment [2].

As to `C[C@H](Nc1cc(-c2cnn3cccnc23)nc(OC2CCNC2)n1)c1ccc(F)cc1F` (stereo partly shown) [Compound 218], the Ki in experiment [1] is 100 to 500 nM; in experiment [2], 10 to 100 nM.
